Values after ≈ are worked out from the molar mass of the structure shown.
Each compound was assayed on M. tuberculosis H37Rv (ATCC 27294) (assay: Microplate Alamar Blue assay (MABA), MIC against replicating M. tuberculosis H37Rv). Conditions: Mycobacterium tuberculosis, 168 h, read-out: M. tuberculosis MIC.
Type: cell-based
`COc1nc2ccc(Br)cc2cc1C(c1ccccc1)C(O)(CCN(C)C)c1cccc2c1CCC2` (stereo not shown) [Example 40, 1-(6-Bromo-2-methoxyquinolin-3-yl)-2-(2,3-dihydro-1H-inden-4-yl)-4-(dimethylamino)-1-phenylbutan-2-ol] showed an MIC of 0.07 mg/L (≈ 0.128 µM).

Same assay, conditions: Mycobacterium tuberculosis, 168 h; H37Rv, MABA, 7H12 media, 7 days at 37° C.; MIC = lowest concentration reducing fluorescence by 90% relative to controls; read-out: M. tuberculosis MIC
`COc1nc2ccc(Br)cc2cc1C(c1ccccc1)C(O)(CCN(C)C)c1cccc2occc12` (stereo not shown) [Example 14, 2-(Benzofuran-4-yl)-1-(6-bromo-2-methoxyquinolin-3-yl)-4-(dimethylamino)-1-phenylbutan-2-ol] showed an MIC of 0.06 mg/L (≈ 0.11 µM). `CCOc1cc(C(O)(CCN(C)C)C(c2cc(OC)nc(OC)c2)c2cc3cc(Br)ccc3nc2OC)cc(OC(C)C)n1` (stereo not shown) [Example 24, 1-(6-Bromo-2-methoxyquinolin-3-yl)-1-(2,6-dimethoxypyridin-4-yl)-4-(dimethylamino)-2-(2-ethoxy-6-isopropoxypyridin-4-yl)butan-2-ol] showed an MIC of under 0.02 mg/L. With `COc1cc(C(O)(CCN(C)C)C(c2cc3cc(C#N)ccc3nc2OC)c2cccc(OC)c2F)cc(SC)n1` (stereo not shown) [Example 87, 3-(4-(Dimethylamino)-1-(2-fluoro-3-methoxyphenyl)-2-hydroxy-2-(2-methoxy-6-(methylthio)pyridin-4-yl)butyl)-2-methoxyquinoline-6-carbonitrile] the MIC was 0.02 mg/L (≈ 0.0347 µM). With `CCOc1cc(C(O)(CCN(C)C)C(c2cc3cc(Br)ccc3nc2OC)c2ccnc(OC)c2OC)cc(OC)n1` (stereo not shown) [Example 20, 1-(6-Bromo-2-methoxyquinolin-3-yl)-1-(2,3-dimethoxypyridin-4-yl)-4-(dimethylamino)-2-(2-ethoxy-6-methoxypyridin-4-yl)butan-2-ol] the MIC was under 0.02 mg/L. Compound `CCOc1cc(C(O)(CCN(C)C)C(c2cccc(C)c2)c2cc3cc(Br)ccc3nc2OC)cc(OCC)n1` (stereo not shown) [Example 34, 1-(6-Bromo-2-methoxyquinolin-3-yl)-2-(2,6-diethoxypyridin-4-yl)-4-(dimethylamino)-1-(m-tolyl)butan-2-ol] has an MIC of 0.04 mg/L (≈ 0.0657 µM). Compound `COc1nc2ccc(Br)cc2cc1C(c1cccc(C)c1F)C(O)(CCN(C)C)c1cc(SC)nc(SC)c1` (stereo not shown) [Example 55, 2-(2,6-Bis(methylthio)pyridin-4-yl)-1-(6-bromo-2-methoxyquinolin-3-yl)-4-(dimethylamino)-1-(2-fluoro-3-methylphenyl)butan-2-ol] has an MIC of under 0.004 mg/L.
